Assay results taken from ChEMBL document CHEMBL2074327, “hPepT1-mediated epithelial transport of bacteria-derived chemotactic peptides enhances neutrophil-epithelial interactions” (J Clin Invest, 1998).
Peptide text beside a SMILES is read from it.

Experiments:
Assay type in all cases: functional, cell-based
[1] = target: T1, Solute carrier family 15 member 1 (Homo sapiens) (UniProt P46059); assay: TP_TRANSPORTER: inhibition of fMLP uptake (fMLP: 0.1 uM, Carnosine: 10000 uM) in Caco-2 cells
T1 sequence (whole entry): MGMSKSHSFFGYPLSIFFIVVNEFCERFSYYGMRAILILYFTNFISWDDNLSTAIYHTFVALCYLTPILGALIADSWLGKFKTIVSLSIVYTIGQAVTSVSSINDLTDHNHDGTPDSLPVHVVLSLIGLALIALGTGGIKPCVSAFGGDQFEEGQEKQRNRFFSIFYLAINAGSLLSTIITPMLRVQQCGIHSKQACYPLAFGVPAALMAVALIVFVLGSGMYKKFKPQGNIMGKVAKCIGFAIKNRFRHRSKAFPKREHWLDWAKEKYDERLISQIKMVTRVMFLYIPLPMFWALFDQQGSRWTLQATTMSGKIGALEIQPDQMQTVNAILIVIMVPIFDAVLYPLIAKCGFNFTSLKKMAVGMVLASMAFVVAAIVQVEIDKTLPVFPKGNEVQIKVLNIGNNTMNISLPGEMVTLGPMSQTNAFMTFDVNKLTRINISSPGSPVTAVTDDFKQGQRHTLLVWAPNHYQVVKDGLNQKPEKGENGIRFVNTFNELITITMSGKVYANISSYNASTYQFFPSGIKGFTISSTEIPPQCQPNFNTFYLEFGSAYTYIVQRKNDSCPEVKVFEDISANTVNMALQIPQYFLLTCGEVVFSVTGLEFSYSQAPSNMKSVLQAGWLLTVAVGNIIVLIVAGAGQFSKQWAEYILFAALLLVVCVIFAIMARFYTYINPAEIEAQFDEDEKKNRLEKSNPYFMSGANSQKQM

[2] = target: T1, Solute carrier family 15 member 1 (Homo sapiens); assay: TP_TRANSPORTER: inhibition of fMLP uptake (fMLP: 0.1 uM, Gly-Leu: 10000 uM) in Caco-2 cells
[3] = target: T1, Solute carrier family 15 member 1 (Homo sapiens); assay: TP_TRANSPORTER: inhibition of fMLP uptake (fMLP: 0.12 uM, Gly-Leu: 10000 uM) in Xenopus laevis oocytes; conditions: Oocyte
[4] = target: T1, Solute carrier family 15 member 1 (Homo sapiens); assay: TP_TRANSPORTER: uptake in Xenopus laevis oocytes; conditions: Oocyte
[5] = target: T1, Solute carrier family 15 member 1 (Homo sapiens); assay: TP_TRANSPORTER: inhibition of Gly-Sar uptake (Gly-Sar: 100 uM, fMLP: 1000 uM) in Xenopus laevis oocytes; conditions: Oocyte
[6] = target: T1, Solute carrier family 15 member 1 (Homo sapiens); assay: TP_TRANSPORTER: inhibition of fMLP uptake (fMLP: 0.1 uM, Gly-Pro: 10000 uM) in Caco-2 cells

NCCC(=O)N[C@@H](Cc1c[nH]cn1)C(=O)O
inhibition [1]: 93%

CC(C)C[C@H](NC(=O)CN)C(=O)O
inhibition [2]: 93% | Activity [3]: inhibitor [+]

CSCC[C@H](NC=O)C(=O)N[C@@H](CC(C)C)C(=O)N[C@@H](Cc1ccccc1)C(=O)O
Activity [4]: substrate [+] | inhibition [5]: 88%

NCC(=O)N1CCC[C@H]1C(=O)O (H-Gly-Pro-OH)
inhibition [6]: 78%
